Test results taken from paper PMC12396409, “Screening and hit evaluation of a microbial metabolite library against the pathogenic Plasmodium falciparum and Toxoplasma gondii parasites” (International Journal for Parasitology: Drugs and Drug …, 2025).
Where two headings read alike, the source gives them in different places.

What was measured:
[1] = test system: P. falciparum 3D7 parasites; assay: P. falciparum growth inhibition assay, 1-cycle (72 h treatment), SYBR DNA staining (library screen at 2 μg/mL and dose-response); format: cell-based, Plasmodium falciparum; details: for activity at 2 µg/mL: Plasmodium falciparum, 3D7
[2] = test system: P. falciparum 3D7 parasites; assay: P. falciparum growth inhibition assay, 2-cycle (120 h treatment), delayed-death screen and dose-response; format: cell-based, Plasmodium falciparum; details: for activity at 2 µg/mL: Plasmodium falciparum, 3D7
[3] = test system: T. gondii RH strain (RH-Tub-eYFP) tachyzoites; assay: microbe, parasite or virus in culture; format: cell-based, Toxoplasma gondii; details: 72 h; for percent parasite growth at 2 µg/mL: Toxoplasma gondii
[4] = P. falciparum 3D7, 72 h, library screen at 2 μg/mL, % growth, replicate 1
[5] = P. falciparum 3D7, 72 h, library screen at 2 μg/mL, % growth, replicate 2
[6] = P. falciparum 3D7, 120 h, library screen at 2 μg/mL, % growth, replicate 1
[7] = P. falciparum 3D7, 120 h, library screen at 2 μg/mL, % growth, replicate 2
[8] = T. gondii RH, library screen at 2 μg/mL, % growth, replicate 1
[9] = T. gondii RH, library screen at 2 μg/mL, % growth, replicate 2
[10] = P. falciparum 3D7, 72 h, parasite screen at 2 μg/mL, % growth, replicate 1
[11] = P. falciparum 3D7, 72 h, parasite screen at 2 μg/mL, % growth, replicate 2
[12] = P. falciparum 3D7, 120 h, parasite screen at 2 μg/mL, % growth, replicate 1
[13] = P. falciparum 3D7, 120 h, parasite screen at 2 μg/mL, % growth, replicate 2
[14] = T. gondii, parasite screen at 2 μg/mL, % growth, replicate 1
[15] = T. gondii, parasite screen at 2 μg/mL, % growth, replicate 2

Work on `CC(C)C(=O)N[C@H](CO)[C@H](O)c1ccc([N+](=O)[O-])cc1` [Corynecin III] yielded a Pf_72h_%Growth_Rep1 ([1]; P. falciparum, 72 h, screen at 2 μg/mL, replicate 1) of 86.99%, a Pf_72h_%Growth_Rep2 ([1]; P. falciparum, 72 h, screen at 2 μg/mL, replicate 2) of 97.15% and a Pf_120h_%Growth_Rep1 ([2]; P. falciparum, 120 h, screen at 2 μg/mL, replicate 1) of 87.60%. For the same compound, the Pf_120h_%Growth_Rep2 ([2]; P. falciparum, 120 h, screen at 2 μg/mL, replicate 2) was 90.07%, the Tg_72h_%Growth_Rep1 ([3]; T. gondii, screen at 2 μg/mL, replicate 1) was 93.46% and the Tg_72h_%Growth_Rep2 ([3]; T. gondii, screen at 2 μg/mL, replicate 2) was 102.63%.

For `C=CC(C)(C)c1[nH]cnc1/C=C1/NC(=O)[C@@H]2C[C@@]3(C(C)(C)C=C)c4ccccc4N[C@H]3N2C1=O` [Roquefortine E], the Pf_72h_%Growth_Rep1 ([1]; P. falciparum, 72 h, parasite screen 2 μg/mL, % growth, replicate 1) was 11.66%, the Pf_72h_%Growth_Rep2 ([1]; P. falciparum, 72 h, parasite screen 2 μg/mL, % growth, replicate 2) was 6.85% and the Pf_120h_%Growth_Rep1 ([2]; P. falciparum, 120 h, parasite screen 2 μg/mL, % growth, replicate 1) was 14.59%. For the same compound, the Pf_120h_%Growth_Rep2 ([2]; P. falciparum, 120 h, parasite screen 2 μg/mL, % growth, replicate 2) was 17.38%, the Tg_72h_%Growth_Rep1 ([3]; T. gondii, parasite screen 2 μg/mL, % growth, replicate 1) was 75.06% and the Tg_72h_%Growth_Rep2 ([3]; T. gondii, parasite screen 2 μg/mL, % growth, replicate 2) was 97.61%.

For `COC1=CC(=O)C[C@@H](C)[C@]12Oc1c(Cl)c(OC)cc(OC)c1C2=O` [BIA-G1212], the Pf_72h_%Growth_Rep1 [1, 4] was 92.41%, the Pf_72h_%Growth_Rep2 [1, 5] was 108.96% and the Pf_120h_%Growth_Rep1 [2, 6] was 92.82%. The Pf_120h_%Growth_Rep2 [2, 7] was 104.36%, the Tg_72h_%Growth_Rep1 [3, 8] was 123.15% and the Tg_72h_%Growth_Rep2 [3, 9] was 96.50%.

`CC1=CCC2CC(CC3(CCC(C)C(C)O3)O2)OC(=O)C2C=C(C)C(O)C3OCC(=CC=CC(C)C1)C23O` (stereo not drawn) [BIA-M1051] showed a Pf_72h_%Growth_Rep1 [1, 10] of 47.24%, a Pf_72h_%Growth_Rep2 [1, 11] of 1.70% and a Pf_120h_%Growth_Rep1 [2, 12] of 10.36%. The Pf_120h_%Growth_Rep2 [2, 13] was 24.90%, the Tg_72h_%Growth_Rep1 [3, 14] was 114.92% and the Tg_72h_%Growth_Rep2 [3, 15] was 98.32%.

`Cc1cc(OC(=O)c2c(C)cc(O)cc2O)cc(O)c1C(=O)O` [BIA-L1669] was tested, and the Pf_72h_%Growth_Rep1 [1, 4] was 74.56%, the Pf_72h_%Growth_Rep2 [1, 5] was 54.17% and the Pf_120h_%Growth_Rep1 [2, 6] was 65.54%. The Pf_120h_%Growth_Rep2 [2, 7] was 115.03%, the Tg_72h_%Growth_Rep1 [3, 8] was 166.09% and the Tg_72h_%Growth_Rep2 [3, 9] was 102.01%.

`C[C@@H]1Cc2ccc(C(=O)N[C@@H](Cc3ccccc3)C(=O)O)c(O)c2C(=O)O1` [BIA-O1196] showed a Pf_72h_%Growth_Rep1 [1, 10] of 83.68%, a Pf_72h_%Growth_Rep2 [1, 11] of 90.59% and a Pf_120h_%Growth_Rep1 [2, 12] of 89.68%. It also gave a Pf_120h_%Growth_Rep2 [2, 13] of 126.27%, a Tg_72h_%Growth_Rep1 [3, 14] of 126.36% and a Tg_72h_%Growth_Rep2 [3, 15] of 89.16%.

With `CC[C@H]1OC(=O)[C@H](C)[C@@H](O[C@H]2C[C@@](C)(OC)[C@@H](O)[C@H](C)O2)[C@H](C)[C@@H](O[C@@H]2O[C@H](C)C[C@H](N(C)C)[C@H]2O)[C@](C)(O)C[C@@H](C)C(=O)[C@H](C)[C@@H](O)[C@H]1C` [Erythromycin B] the Pf_72h_%Growth_Rep1 ([1]; library screen at 2 μg/mL, 72 h, % growth, replicate 1) was 77.77%, the Pf_72h_%Growth_Rep2 ([1]; library screen at 2 μg/mL, 72 h, % growth, replicate 2) was 67.71% and the Pf_120h_%Growth_Rep1 ([2]; library screen at 2 μg/mL, 120 h, % growth, replicate 1) was 64.18%. For the same compound, the Pf_120h_%Growth_Rep2 ([2]; library screen at 2 μg/mL, 120 h, % growth, replicate 2) was 47.52%, the Tg_72h_%Growth_Rep1 ([3]; library screen at 2 μg/mL, % growth, replicate 1) was 53.14% and the Tg_72h_%Growth_Rep2 ([3]; library screen at 2 μg/mL, % growth, replicate 2) was 48.82%.

Compound `C=C1CCO[C@]2([C@@H](O)[C@@](C)(O)CO)NC(=O)[C@@]1(O)NC2=O` [Bicyclomycin] has an activity at 2 µg/mL ([1]; library screen at 2 μg/mL, 72 h, % growth, replicate 1, read-out: Pf_72h_%Growth_Rep1) of 82.6%, an activity at 2 µg/mL ([1]; library screen at 2 μg/mL, 72 h, % growth, replicate 2, read-out: Pf_72h_%Growth_Rep2) of 88% and an activity at 2 µg/mL ([2]; library screen at 2 μg/mL, 120 h, % growth, replicate 1, read-out: Pf_120h_%Growth_Rep1) of 102%. It also gave an activity at 2 µg/mL ([2]; library screen at 2 μg/mL, 120 h, % growth, replicate 2, read-out: Pf_120h_%Growth_Rep2) of 86.7%, a percent parasite growth at 2 µg/mL ([3]; library screen at 2 μg/mL, % growth, replicate 1, read-out: Tg_72h_%Growth_Rep1) of 126% and a percent parasite growth at 2 µg/mL ([3]; library screen at 2 μg/mL, % growth, replicate 2, read-out: Tg_72h_%Growth_Rep2) of 100%.
